Data set [1] has as its target BTK (Homo sapiens, UniProt Q06187). The following applies: healthy volunteers, cited from earlier work.
For data set [2] the following is noted: Phase 2 trial; cited from earlier work.
The conditions of data set [3]: patients with chronic lymphatic leukemia; cited from earlier work.
Data set [4] relates to 251 kinases. Kind of data set: broad kinase enzyme inhibition panel. The class given is biochemical. The following applies: 1 μM.
For data set [5] the following is noted: in vivo; cited from earlier work.

Chain of BTK (Q06187 whole entry): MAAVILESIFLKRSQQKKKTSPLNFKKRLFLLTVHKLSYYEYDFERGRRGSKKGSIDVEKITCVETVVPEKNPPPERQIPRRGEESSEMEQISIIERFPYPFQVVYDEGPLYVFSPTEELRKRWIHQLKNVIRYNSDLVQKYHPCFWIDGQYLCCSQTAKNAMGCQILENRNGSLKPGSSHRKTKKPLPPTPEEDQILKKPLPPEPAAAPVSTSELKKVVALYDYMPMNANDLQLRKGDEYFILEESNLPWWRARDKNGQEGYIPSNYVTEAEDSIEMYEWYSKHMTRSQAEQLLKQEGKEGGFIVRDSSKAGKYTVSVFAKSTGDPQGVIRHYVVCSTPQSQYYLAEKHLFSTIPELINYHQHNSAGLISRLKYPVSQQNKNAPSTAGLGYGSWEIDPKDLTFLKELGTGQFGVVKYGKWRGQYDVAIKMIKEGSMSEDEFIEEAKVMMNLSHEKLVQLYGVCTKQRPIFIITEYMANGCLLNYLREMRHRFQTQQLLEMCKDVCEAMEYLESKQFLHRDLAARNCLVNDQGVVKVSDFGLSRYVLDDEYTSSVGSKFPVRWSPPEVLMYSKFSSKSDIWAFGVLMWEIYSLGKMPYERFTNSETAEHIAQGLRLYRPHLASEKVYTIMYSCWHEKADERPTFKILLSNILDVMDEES

For the compound `C=CC(=O)Nc1cccc(Nc2nc(Nc3ccc(OCCOC)cc3)ncc2F)c1` [CC-292], the tolerability entry in data set [1] (doses with 100% occupancy) was “well tolerated”. In data set [1], the “occupancy of the BTK enzyme” value is reported as 100%.

For the compound `C=CC(=O)N1CCC(CNc2ncnc(N)c2-c2ccc(Oc3ccccc3)cc2)CC1` [evobrutinib], the “efficacy in multiple sclerosis” value in data set [2] is reported as “demonstrated efficacy for multiple sclerosis”.

For the compound `C=CC(=O)N1CCC[C@@H](n2nc(-c3ccc(Oc4ccccc4)cc3)c3c(N)ncnc32)C1` [ibrutinib], the “sequential episodes of severe autoimmune hemolytic anemia and ITP” value in data set [3] is listed as “ceased after initiation of treatment with ibrutinib”. In data set [4], the “number of kinases inhibited” value was determined as 21 kinases. Moreover, the “activity in other hematological malignancies” value in data set [5] was “demonstrated activity in other hematological malignancies”.

The values above are taken from US20260364079A1 (Principia Biopharma Inc., priority 2022, published 2026).
